Measurements from patent US20090137652A1, “METHODS FOR NEUROPROTECTION” (priority 2005, published 2009).

Test system: transient cerebral ischemia middle cerebral artery occlusion (MCAO) rat model
Test: Transient cerebral ischemia middle cerebral artery occlusion (MCAO) rat model, infarct volume
Assay type: in vivo
Details: N 12; for Mean Infarct Volume ± S.E.M., Striatum: vehicle 79.4; for Mean Infarct Volume ± S.E.M., Cortex: vehicle 275.5; for Mean Infarct Volume ± S.E.M., Total Volume: vehicle 354.9
Method: The enantiomer of Formula 7 (test compound) was investigated in the transient cerebral ischemia middle cerebral artery occlusion (MCAO) rat model (as described in Nagasawa H. and Kogure K., Stroke, 1989, 20, 1037; and, Zea Longa E., Weinstein P. R., Carlson S, and Cummins R., Stroke, 1989, 20, 84) using male Wistar rats at 10 and 100 mg/kg (i.v.). MK 801 (Dizocilpine maleate; CAS Registry number 77086-22-7, a commercially available neuroprotectant compound) was used as a positive control (3 mg/kg, i.p.).
Rats (n=12) were randomly allocated to one of four experimental groups and were anesthetized. Blood flow from the internal carotid artery, anterior cerebral artery and posterior cerebral artery into the middle cerebral artery was blocked by this procedure. One hour after blockage, animals were treated over a 1 hour period with vehicle (administered i.v. over the one hour period), control (administered as a single i.p. dose at the start of the one hour period) and two doses of the enantiomer of Formula 7 (administered i.v. over the one hour period). Two hours after blockage, reperfusion was performed.
The animals were sacrificed and […] coronal sections of each brain were prepared. One in every forty sections (i.e. every […]) from the front to the occipital cortex was used to quantify the extent of the cerebral lesion. Slides were prepared using sections stained (according to the Nissl procedure) with cresyl violet and were examined under a light microscope.
Regional ischemic surface areas in the coronal sections of individual rats were determined according to the presence of cells with morphological changes. The areas of neuronal injury or infarction were measured and then added. The cortex and striatum volume were calculated for each animal (total ischemic surface area×0.8 mm (thickness)).
The mean volumes (.+−.S.E.M.) for each animal randomly assigned to the four experimental groups were compared using one-way ANOVA (one way ANOVA is a statistical method which compares 3 or more unmatched groups) followed by Dunnett's t-test (both methods incorporated in Statview 512+software, BarinPower, Calabasas, Calif., USA).

[1] = Formula 7 10 mg/kg i.v. over 1 hour
[2] = Formula 7 100 mg/kg i.v. over 1 hour

Compound: NC(=O)OC[C@@H](O)c1ccccc1Cl [Formula 7]
- Mean Infarct Volume ± S.E.M., Striatum [1]: 75.9 ± 2.6 mm^3
- Mean Infarct Volume ± S.E.M., Cortex [1]: 201.0 ± 23.9 mm^3
- Mean Infarct Volume ± S.E.M., Total Volume [1]: 276.9 ± 25.4 mm^3
- Mean Infarct Volume ± S.E.M., Striatum [2]: 63.0 ± 5.9^2 mm^3
- Mean Infarct Volume ± S.E.M., Cortex [2]: 98.8 ± 29.5^1 mm^3
- Mean Infarct Volume ± S.E.M., Total Volume [2]: 161.9 ± 34.3^1 mm^3
